From article PMC9112895, “Selective Inhibition of Plasmodium falciparum ATPase 6 by Artemisinins and Identification of New Classes of Inhibitors after Expression in Yeast” (Antimicrobial Agents and Chemotherapy, 2022)

Tests used:
[1] = target: SERCA1a (Oryctolagus cuniculus, UniProt P04191); experiment: In vitro activity assay, SERCA1a (membrane-bound); format: biochemical, rabbit; parameters: containing the SERCA1a coding region from rabbit skeletal fast-twitch muscle; expressed in transfected cells; details: parallel in vitro activity assay, 100 µM (Fig. S1D)
Procedure: Activity assays were performed as described by Longland et al. ([55]) and LeBel et al. ([56]), except that the reaction mixtures were incubated at 30°C instead of 37°C. […] Then, 5.8 mM ATP was added and incubated for an additional 15 min at 30°C. The reaction was stopped with 0.5 mL 6.5% trichloroacetic acid (TCA) on ice, and the mixture was centrifuged at 4°C for 10 min at 16,000 × g; 0.5 mL of the supernatant was added to 1.5 mL of copper acetate buffer (0.25% copper sulfate pentahydrate, 4.6% sodium acetate trihydrate, dissolved in 2 M acetic acid [pH 4.0]) and mixed by vortex-mixing before the addition of 0.25 mL of 5% ammonium molybdate, followed by 0.25 mL METOL buffer (2% p-methyl-aminophenol sulfate, 5% sodium sulfite). Samples were incubated for 10 min, and the absorbance was measured at 870 nm in a spectrophotometer. The Pi standard was 0.4387 g/100 mL KH2PO4.

[2] = target: T1, A623E PfATP6 (Plasmodium falciparum, UniProt Q08853, A623E); experiment: Yeast whole-cell assay, PfATP6 A623E mutant; format: cell-based; details: read-out: IC50 (mean ± SD)
T1 construct: expressed in transfected cells; host or cells: Saccharomyces cerevisiae K667-derived strain
T1 sequence (Q08853 1-1228 A623E): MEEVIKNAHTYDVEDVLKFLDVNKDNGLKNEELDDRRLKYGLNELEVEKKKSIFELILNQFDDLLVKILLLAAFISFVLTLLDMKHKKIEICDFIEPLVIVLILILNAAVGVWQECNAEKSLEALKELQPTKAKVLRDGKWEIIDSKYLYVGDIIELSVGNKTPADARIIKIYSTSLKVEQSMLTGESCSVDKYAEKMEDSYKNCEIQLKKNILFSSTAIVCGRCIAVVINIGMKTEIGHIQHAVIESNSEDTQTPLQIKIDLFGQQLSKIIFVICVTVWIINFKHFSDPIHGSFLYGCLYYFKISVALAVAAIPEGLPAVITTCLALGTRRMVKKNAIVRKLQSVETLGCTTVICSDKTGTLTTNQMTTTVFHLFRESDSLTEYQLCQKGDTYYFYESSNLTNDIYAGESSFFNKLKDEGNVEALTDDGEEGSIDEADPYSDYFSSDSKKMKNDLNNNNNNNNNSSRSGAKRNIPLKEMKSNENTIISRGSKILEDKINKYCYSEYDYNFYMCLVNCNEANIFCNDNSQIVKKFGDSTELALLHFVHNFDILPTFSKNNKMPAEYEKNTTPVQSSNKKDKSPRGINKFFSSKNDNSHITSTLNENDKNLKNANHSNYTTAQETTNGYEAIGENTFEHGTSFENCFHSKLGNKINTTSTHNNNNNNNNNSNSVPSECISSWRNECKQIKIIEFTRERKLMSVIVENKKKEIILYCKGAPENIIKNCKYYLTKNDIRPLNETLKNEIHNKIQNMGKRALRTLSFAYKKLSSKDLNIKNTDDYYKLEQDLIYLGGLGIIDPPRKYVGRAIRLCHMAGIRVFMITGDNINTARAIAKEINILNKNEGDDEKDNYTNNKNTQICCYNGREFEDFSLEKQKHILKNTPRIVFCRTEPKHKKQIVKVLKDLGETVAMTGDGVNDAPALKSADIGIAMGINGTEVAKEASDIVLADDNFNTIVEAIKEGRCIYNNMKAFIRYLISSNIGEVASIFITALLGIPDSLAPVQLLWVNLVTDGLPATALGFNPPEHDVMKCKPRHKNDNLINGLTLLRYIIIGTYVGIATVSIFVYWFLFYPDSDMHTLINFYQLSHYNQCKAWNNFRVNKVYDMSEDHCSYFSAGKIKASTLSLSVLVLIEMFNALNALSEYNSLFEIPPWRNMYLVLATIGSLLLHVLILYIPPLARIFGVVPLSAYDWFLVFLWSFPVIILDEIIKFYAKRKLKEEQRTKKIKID
Procedure: Yeast transformations were performed using the method described by Gietz and Schiestl ([48]), and transformants were selected by an uracil auxotrophic marker. Transformations were confirmed by colony PCR. Both K667 and K667Δpdr5::HIS were transformed with the following plasmids: pUGpd plasmid as a vector-only control (derived from pRS316 [49]); br434 plasmid (derived from pRS316 [50]) containing the SERCA1a coding region from rabbit skeletal fast-twitch muscle (pbr434-SERCA1a); and pUGpd containing the yeast-optimized coding region of PfATP6 from Plasmodium falciparum (pUGpd-PfATP6). Site-directed mutagenesis was performed on the SERCA1a coding region to produce the mutation E255L in the protein. Mutations were also introduced into the PfATP6 coding region to produce mutations L263E, A623E, and S769N and the double mutation A623E/S769N ([13]).
The screening assay used here was developed from the protocol used by Pulcini et al. ([13]). […] The optimal calcium concentration was periodically monitored and, if necessary, adjusted using a calcium concentration range of 10 to 30 mM. […] The yeast growth was estimated from the absorbance at 620 nm in a Tecan plate reader. […] The data collected were analyzed using GraphPad Prism v9.0 (GraphPad software, San Diego, CA, U.S.A).

Chain of SERCA1a (P04191 other isoform, or with tags, fused parts or gaps): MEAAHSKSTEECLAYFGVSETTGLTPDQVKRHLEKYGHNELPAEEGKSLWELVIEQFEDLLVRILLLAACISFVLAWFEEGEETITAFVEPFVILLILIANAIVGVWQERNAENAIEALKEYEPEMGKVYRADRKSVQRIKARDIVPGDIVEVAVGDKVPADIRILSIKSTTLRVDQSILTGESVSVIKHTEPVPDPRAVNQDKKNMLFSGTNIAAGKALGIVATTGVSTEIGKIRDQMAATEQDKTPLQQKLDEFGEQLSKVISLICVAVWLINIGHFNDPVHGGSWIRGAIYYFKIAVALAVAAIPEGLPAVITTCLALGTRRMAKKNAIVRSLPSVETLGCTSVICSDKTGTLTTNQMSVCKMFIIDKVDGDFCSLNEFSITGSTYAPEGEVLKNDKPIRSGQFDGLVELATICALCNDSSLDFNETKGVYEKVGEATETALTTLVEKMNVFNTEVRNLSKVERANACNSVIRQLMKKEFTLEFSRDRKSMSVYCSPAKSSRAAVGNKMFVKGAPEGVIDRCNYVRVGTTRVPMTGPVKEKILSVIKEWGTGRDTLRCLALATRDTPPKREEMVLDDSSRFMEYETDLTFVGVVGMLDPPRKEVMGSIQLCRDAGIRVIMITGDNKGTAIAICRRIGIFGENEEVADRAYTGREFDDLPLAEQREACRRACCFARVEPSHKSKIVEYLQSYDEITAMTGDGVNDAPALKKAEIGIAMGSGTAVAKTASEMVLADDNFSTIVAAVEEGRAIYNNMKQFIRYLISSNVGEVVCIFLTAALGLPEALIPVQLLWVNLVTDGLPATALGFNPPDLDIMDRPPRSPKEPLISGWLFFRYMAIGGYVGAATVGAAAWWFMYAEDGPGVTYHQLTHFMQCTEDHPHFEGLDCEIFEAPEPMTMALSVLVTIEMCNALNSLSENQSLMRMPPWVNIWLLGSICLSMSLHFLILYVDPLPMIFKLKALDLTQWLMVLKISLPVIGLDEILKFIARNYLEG

Question: With `CC(=O)C1=C(O)[C@@H]2[C@H]3c4c[nH]c5cccc(c45)C[C@H]3C(C)(C)N2C1=O` [CPA, cyclopiazonic acid] as the compound, how does the “inhibition of purified SERCA1a activity” value [1] read?
Answer: apparent inhibition

Question: What about the IC50 [2] of the same compound?
Answer: 5.86 µM
